Assays:
Format in all cases: cell-based, human
[1] = tested on: MDA-MB-435; experiment: NCI 60 panel five-dose growth inhibition, Melanoma; conditions: Homo sapiens; MDA-MB-435, Melanoma
[2] = tested on: IGROV1; experiment: NCI 60 panel five-dose growth inhibition, Ovarian Cancer; conditions: for GI50: Homo sapiens, IGROV-1
[3] = tested on: NCI-H460; experiment: NCI 60 panel five-dose growth inhibition, Non-Small Cell Lung Cancer; conditions: for GI50: Homo sapiens
[4] = tested on: PC-3; experiment: NCI 60 panel five-dose growth inhibition, Prostate Cancer; conditions: PC-3, Prostate Cancer; for GI50: Homo sapiens
[5] = tested on: 5K-MEL-5; experiment: NCI 60 panel five-dose growth inhibition, Melanoma; conditions: 5K-MEL-5, Melanoma; for GI50: Homo sapiens
[6] = tested on: SNB-19; experiment: NCI 60 panel five-dose growth inhibition, CNS Cancer; conditions: SNB-19, CNS Cancer; for GI50: Homo sapiens
[7] = tested on: MDA-MB-231/ATCC; experiment: NCI 60 panel five-dose growth inhibition, Breast Cancer; conditions: for GI50: Homo sapiens
[8] = tested on: HCT-116; experiment: NCI 60 panel five-dose growth inhibition, Colon Cancer; conditions: HCT-116, Colon Cancer; for GI50: Homo sapiens
[9] = tested on: 1-ICT-15; experiment: as above; conditions: 1-ICT-15, Colon Cancer; for GI50: Homo sapiens
[10] = tested on: SF-539; experiment: NCI 60 panel five-dose growth inhibition, CNS Cancer; conditions: SF-539, CNS Cancer; for GI50: Homo sapiens
[11] = tested on: SK-MEL-2; experiment: NCI 60 panel five-dose growth inhibition, Melanoma; conditions: SK-MEL-2, Melanoma; for GI50: Homo sapiens
[12] = tested on: MDA-MB-468; experiment: NCI 60 panel five-dose growth inhibition, Breast Cancer; conditions: MDA-MB-468, Breast Cancer; for GI50: Homo sapiens
[13] = tested on: HCC-2998; experiment: NCI 60 panel five-dose growth inhibition, Colon Cancer; conditions: HCC-2998, Colon Cancer; for GI50: Homo sapiens
[14] = tested on: CAKI-1; experiment: NCI 60 panel five-dose growth inhibition, Renal Cancer; conditions: CAKI-1, Renal Cancer; for GI50: Homo sapiens
[15] = tested on: NCI/ADR-RES; experiment: NCI 60 panel five-dose growth inhibition, Ovarian Cancer; conditions: for GI50: Homo sapiens
[16] = tested on: A498; experiment: NCI 60 panel five-dose growth inhibition, Renal Cancer; conditions: for TGI: A498, Renal Cancer; for GI50: Homo sapiens, A498, A498, Renal Cancer
[17] = tested on: DU-145; experiment: NCI 60 panel five-dose growth inhibition, Prostate Cancer; conditions: DU-145, Prostate Cancer; for GI50: Homo sapiens
[18] = tested on: SR; experiment: NCI 60 panel five-dose growth inhibition, Leukemia; conditions: for GI50: Homo sapiens
[19] = tested on: K-562; experiment: NCI 60 panel five-dose growth inhibition, Leukemia; conditions: K-562, Leukemia; for GI50: Homo sapiens, K562
[20] = tested on: MOLT-4; experiment: NCI 60 panel five-dose growth inhibition, Leukemia; conditions: MOLT-4, Leukemia; for GI50: Homo sapiens
[21] = tested on: CCRF-CEM; experiment: NCI 60 panel five-dose growth inhibition, Leukemia; conditions: for GI50: Homo sapiens
[22] = tested on: SF-268; experiment: NCI 60 panel five-dose growth inhibition, CNS Cancer; conditions: SF-268, CNS Cancer; for GI50: Homo sapiens
[23] = tested on: U251; experiment: as above; conditions: for GI50: Homo sapiens, U-251
[24] = tested on: ACHN; experiment: NCI 60 panel five-dose growth inhibition, Renal Cancer; conditions: for GI50: Homo sapiens
[25] = tested on: 786-0; experiment: as above; conditions: 786-0, Renal Cancer; for GI50: Homo sapiens
[26] = tested on: M14; experiment: NCI 60 panel five-dose growth inhibition, Melanoma; conditions: for GI50: Homo sapiens
[27] = tested on: NCI-H23; experiment: NCI 60 panel five-dose growth inhibition, Non-Small Cell Lung Cancer; conditions: for GI50: Homo sapiens
[28] = tested on: HOP-92; experiment: as above; conditions: HOP-92, Non-Small Cell Lung Cancer; for GI50: Homo sapiens
[29] = tested on: SNB-75; experiment: NCI 60 panel five-dose growth inhibition, CNS Cancer; conditions: SNB-75, CNS Cancer; for GI50: Homo sapiens
[30] = tested on: UACC-62; experiment: NCI 60 panel five-dose growth inhibition, Melanoma; conditions: for TGI: UACC-62, Melanoma; for GI50: Homo sapiens, UACC-62, UACC-62, Melanoma
[31] = tested on: LOX IMVI; experiment: NCI 60 panel five-dose growth inhibition, Melanoma; conditions: for GI50: Homo sapiens
[32] = tested on: OVCAR-4; experiment: NCI 60 panel five-dose growth inhibition, Ovarian Cancer; conditions: OVCAR-4, Ovarian Cancer; for GI50: Homo sapiens
[33] = tested on: SW-620; experiment: NCI 60 panel five-dose growth inhibition, Colon Cancer; conditions: SW-620, Colon Cancer; for GI50: Homo sapiens
[34] = tested on: HOP-62; experiment: NCI 60 panel five-dose growth inhibition, Non-Small Cell Lung Cancer; conditions: HOP-62, Non-Small Cell Lung Cancer; for GI50: Homo sapiens
[35] = tested on: HT29; experiment: NCI 60 panel five-dose growth inhibition, Colon Cancer; conditions: for GI50: Homo sapiens, HT-29
[36] = tested on: MCF7; experiment: NCI 60 panel five-dose growth inhibition, Breast Cancer; conditions: for GI50: Homo sapiens
[37] = tested on: OVCA R-3; experiment: NCI 60 panel five-dose growth inhibition, Ovarian Cancer; conditions: OVCA R-3, Ovarian Cancer; for GI50: Homo sapiens, OVCAR-3

COc1ccc(-c2n[nH]nc2-c2cc(OC)c(OC)c(OC)c2)cc1 [Example 6, 4-(4-methoxyphenyl)-5-(3,4,5-trimethoxyphenyl)-2H-1,2,3-triazole]
GI50 [1]: < 10 nM
TGI [2]: 30300 nM
GI50 [2]: 33.2 nM
TGI [3]: 20000 nM
GI50 [3]: 24.6 nM
GI50 [4]: 18.4 nM
TGI [4]: 39400 nM
TGI [5]: 160 nM
GI50 [5]: < 10 nM
GI50 [6]: 29.4 nM
TGI [6]: >100000 nM
TGI [7]: >100000 nM
GI50 [7]: 44.4 nM
TGI [8]: 810 nM
GI50 [8]: < 10 nM
TGI [9]: >100000 nM
GI50 [9]: < 10 nM
GI50 [10]: < 10 nM
GI50 [11]: < 10 nM
TGI [11]: 18100 nM
GI50 [12]: 14.7 nM
TGI [12]: 30500 nM
TGI [13]: 17500 nM
GI50 [13]: 39.4 nM
TGI [14]: >100000 nM
GI50 [14]: < 10 nM
TGI [15]: 69700 nM
GI50 [15]: < 10 nM
TGI [16]: 1500 nM
GI50 [16]: < 10 nM
TGI [17]: >100000 nM
GI50 [17]: 25 nM
TGI [18]: 24000 nM
GI50 [18]: < 10 nM
GI50 [19]: < 10 nM
TGI [19]: >100000 nM
GI50 [20]: 39.9 nM
TGI [20]: 11600 nM
TGI [21]: >100000 nM
GI50 [21]: 33.7 nM
GI50 [22]: 68.5 nM
TGI [22]: >100000 nM
TGI [23]: 22700 nM
GI50 [23]: 20.1 nM
TGI [24]: >100000 nM
GI50 [24]: < 10 nM
TGI [25]: 13500 nM
GI50 [25]: < 10 nM
GI50 [26]: < 10 nM
TGI [27]: 41700 nM
GI50 [27]: 48 nM
TGI [28]: 540 nM
GI50 [28]: < 10 nM
GI50 [29]: < 10 nM
TGI [29]: 21900 nM
TGI [30]: 21200 nM
TGI [31]: 37800 nM
GI50 [31]: 17.5 nM
GI50 [32]: 33.6 nM
TGI [32]: 57200 nM
GI50 [33]: < 10 nM
TGI [33]: >100000 nM
TGI [34]: 19300 nM
GI50 [34]: 18.2 nM
TGI [35]: 12300 nM
GI50 [35]: 25.3 nM
TGI [36]: 37900 nM
GI50 [36]: < 10 nM
GI50 [37]: < 10 nM
TGI [37]: <10 nM

COc1cc(-c2n[nH]nc2-c2ccc3c(c2)OCCO3)cc(OC)c1OC [Example 7, 4-(2,3-dihydrobenzo[b][1,4]dioxin-6-yl)-5-(3,4,5-trimethoxyphenyl)-2H-1,2,3-triazole]
GI50 [1]: 94.8 nM
TGI [2]: >100000 nM
GI50 [2]: > 1000 nM
TGI [3]: 28700 nM
GI50 [3]: 335 nM
GI50 [4]: 255 nM
TGI [4]: 43700 nM
TGI [5]: 11900 nM
GI50 [5]: > 1000 nM
GI50 [6]: 501 nM
TGI [6]: >100000 nM
TGI [7]: 31500 nM
GI50 [7]: 529 nM
TGI [8]: 15600 nM
GI50 [8]: 181 nM
TGI [9]: >100000 nM
GI50 [9]: 125 nM
GI50 [10]: 181 nM
TGI [10]: 540 nM
GI50 [11]: 23.6 nM
TGI [11]: 55700 nM
GI50 [12]: 226 nM
TGI [12]: 25800 nM
TGI [13]: 24600 nM
GI50 [13]: > 1000 nM
TGI [14]: >100000 nM
GI50 [14]: 316 nM
TGI [15]: 24000 nM
GI50 [15]: 84.9 nM
TGI [16]: 9320 nM
GI50 [16]: 343 nM
TGI [17]: >100000 nM
GI50 [17]: 346 nM
TGI [18]: 11600 nM
GI50 [18]: 43.6 nM
GI50 [19]: 49.6 nM
TGI [19]: >100000 nM
GI50 [20]: 572 nM
TGI [20]: 51800 nM
TGI [21]: >100000 nM
GI50 [21]: 282 nM
GI50 [22]: > 1000 nM
TGI [22]: >100000 nM
TGI [23]: 11200 nM
GI50 [23]: 302 nM
TGI [24]: >100000 nM
GI50 [24]: 705 nM
TGI [25]: 63500 nM
GI50 [25]: 618 nM
TGI [26]: 12000 nM
TGI [27]: >100000 nM
GI50 [27]: 767 nM
TGI [28]: 1590 nM
GI50 [28]: 122 nM
GI50 [29]: 82.4 nM
GI50 [30]: > 1000 nM
TGI [30]: 30800 nM
TGI [31]: 87100 nM
GI50 [31]: 545 nM
GI50 [32]: 76.3 nM
TGI [32]: >100000 nM
GI50 [33]: 105 nM
TGI [33]: >100000 nM
TGI [34]: >100000 nM
GI50 [34]: 336 nM
TGI [35]: 12500 nM
GI50 [35]: 392 nM
TGI [36]: >100000 nM
GI50 [36]: 76.8 nM
GI50 [37]: 432 nM
TGI [37]: 370 nM

COc1cc(-c2n[nH]nc2-c2cc(OC)c(OC)c(OC)c2)cc(OC)c1OC [Example 3, 4,5-bis(3,4,5-trimethoxyphenyl)-2H-1,2,3-triazole]
GI50 [1]: < 10 nM
TGI [2]: >100000 nM
GI50 [2]: 64.8 nM
TGI [3]: >100000 nM
GI50 [3]: 38.1 nM
GI50 [4]: 45.8 nM
TGI [4]: >100000 nM
TGI [5]: 350 nM
GI50 [5]: 12.6 nM
GI50 [6]: 52.5 nM
TGI [6]: >100000 nM
TGI [7]: >100000 nM
GI50 [7]: 94.7 nM
GI50 [8]: 40.2 nM
TGI [9]: >100000 nM
GI50 [9]: 37.3 nM
GI50 [10]: 20 nM
TGI [10]: 50 nM
GI50 [11]: 26.9 nM
TGI [11]: 4240 nM
GI50 [12]: 34.6 nM
TGI [12]: 26000 nM
TGI [13]: >100000 nM
GI50 [13]: 230 nM
TGI [14]: >100000 nM
GI50 [14]: 42.6 nM
TGI [15]: 66100 nM
GI50 [15]: 23.1 nM
TGI [16]: 6690 nM
GI50 [16]: 33.2 nM
GI50 [17]: 26.6 nM
TGI [18]: >100000 nM
GI50 [18]: 21.1 nM
GI50 [19]: 25.7 nM
TGI [19]: >100000 nM
GI50 [20]: 68.2 nM
TGI [20]: >100000 nM
TGI [21]: >100000 nM
GI50 [21]: 37.3 nM
GI50 [22]: 503 nM
TGI [22]: >100000 nM
TGI [23]: 46900 nM
GI50 [23]: 37.1 nM
TGI [24]: >100000 nM
GI50 [24]: 81.3 nM
TGI [25]: >100000 nM
GI50 [25]: 42.8 nM
GI50 [26]: 21.5 nM
TGI [27]: >100000 nM
GI50 [27]: 64.9 nM
TGI [28]: 11300 nM
GI50 [28]: 98.9 nM
GI50 [29]: 15.7 nM
GI50 [30]: 157 nM
TGI [30]: 4610 nM
TGI [31]: >100000 nM
GI50 [31]: 65.2 nM
GI50 [32]: 77.4 nM
TGI [32]: >100000 nM
GI50 [33]: 40.6 nM
TGI [33]: >100000 nM
TGI [34]: >100000 nM
GI50 [34]: 46.7 nM
TGI [35]: 14500 nM
GI50 [35]: 214 nM
TGI [36]: >100000 nM
GI50 [36]: 26.9 nM
GI50 [37]: 10.8 nM
TGI [37]: 40 nM

— patent US10239844B2, “Disubstituted triazole analogs” (BioVentures, LLC, priority 2014, dated 2019)
